Patent US20130252930A1 (BIOMARIN PHARMACEUTICAL INC., priority 2010, published 2013)
Where two headings read alike, the source gives them in different places.

Legend:
Assay type in all cases: biochemical
[1] = biological target: T1, CYP17 (human testicular microsome) (Homo sapiens, UniProt P05093); test: CYP17 enzymatic assay (% inhibition at 10 nM), version 1 (Biological Example 5)
T1 construct: using microsomal fraction from human testis (Celsis Cat #S00110) as the enzyme source; tissue Celsis S00110; host or cells: human testis microsomal fraction
T1 sequence (P05093 1-508): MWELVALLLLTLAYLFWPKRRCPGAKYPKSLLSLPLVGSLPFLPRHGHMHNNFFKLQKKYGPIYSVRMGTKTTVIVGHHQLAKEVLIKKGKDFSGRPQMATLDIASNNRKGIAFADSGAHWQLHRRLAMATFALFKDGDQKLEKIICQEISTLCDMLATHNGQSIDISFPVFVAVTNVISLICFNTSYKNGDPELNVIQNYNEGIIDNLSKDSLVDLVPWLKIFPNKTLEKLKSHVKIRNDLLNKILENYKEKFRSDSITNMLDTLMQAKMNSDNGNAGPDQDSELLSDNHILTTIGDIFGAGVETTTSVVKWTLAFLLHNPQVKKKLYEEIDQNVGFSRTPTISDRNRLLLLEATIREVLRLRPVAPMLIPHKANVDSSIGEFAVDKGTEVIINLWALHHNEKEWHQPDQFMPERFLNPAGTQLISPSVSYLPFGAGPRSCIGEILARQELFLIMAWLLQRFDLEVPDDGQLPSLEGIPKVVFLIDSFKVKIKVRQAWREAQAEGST

[2] = biological target: T1, CYP17 (human testicular microsome); test: CYP17 enzymatic assay (% inhibition at 1 nM) (Biological Example 12); details: compound at 1 nM
[3] = biological target: T1, CYP17 (human testicular microsome); test: CYP17 enzymatic assay (IC50) (Biological Example 4); details: human testicular microsome
[4] = compound at 10 nM, read-out: CYP17 enzymatic assay % inhibition at 10 nM (Biological Example No. 5)
[5] = 10 nM compound, DHEA by ELISA, read-out: Biological Example No. 5: CYP17 percent inhibition at 10 nM (version 1)
[6] = read-out: CYP17 enzymatic assay % inhibition at 1 nM (Biological Example No. 12)
[7] = read-out: CYP17 enzymatic assay IC50 (Biological Example No. 4)
[8] = read-out: Biological Example No. 12: CYP17 enzymatic assay % inhibition at 1 nM
[9] = read-out: Biological Example No. 4: CYP17 enzymatic assay IC50

SMILES | inhibition at 0.01 µM [1, 5] | IC50 [3, 9] | also measured
C[C@]12CC[C@H]3[C@@H](CC[C@H]4CNC(=O)CC[C@@]43C)C1=CC=C2n1ccnc1 [Compound 448, (5aR,5bS,7aS,10bR,12aR)-8-(1H-imidazol-1-yl)-5a,7a-dimethyl-1,2,5,5a,5b,6,7,7a,10b,11,12,12a-dodecahydrocyclopenta[5,6]naphtho[2,1-c]azepin-3(4H)-one] |  |  | inhibition at 0.01 µM [1, 4]: 50 to 80%
CCOc1cncc(C2=CC[C@H]3[C@@H]4CC[C@H]5CCCCC[C@]5(C)[C@H]4CC[C@]23C)c1 [Compound 94, 3-((3aS,3bR,5aR,10aS,10bS,12aS)-10a,12a-dimethyl-3,3a,3b,4,5,5a,6,7,8,9,10,10a,10b,11,12,12a-hexadecahydrocyclohepta[a]cyclopenta[f]naphthalen-1-yl)-5-ethoxypyridine] | 1 to 50% |  | 
COC1CC[C@@]2(C)[C@@H](CC[C@@H]3[C@@H]2CC[C@]2(C)C(c4cccnc4)=CC[C@@H]32)C1 (stereo partly drawn) [Compound 449, 3-((5S,8R,9S,10S,13S,14S)-3-methoxy-10,13-dimethyl-2,3,4,5,6,7,8,9,10,11,12,13,14,15-tetradecahydro-1H-cyclopenta[a]phenanthren-17-yl)pyridine] |  |  | inhibition at 0.01 µM [1, 4]: 1 to 50%
CCc1cncc(C2=CC[C@H]3[C@@H]4CC=C5CCCC[C@]5(C)[C@H]4CC[C@]23C)c1 [Compound 64, 3-((10R,13S)-10,13-dimethyl-2,3,4,7,8,9,10,11,12,13,14,15-dodecahydro-1H-cyclopenta[a]phenanthren-17-yl)-5-ethylpyridine] | 1 to 50% |  | 
COc1cncc(C2=CC[C@H]3[C@@H]4CCN5CCCCC[C@]5(C)[C@H]4CC[C@]23C)c1 [Compound 47, (11aR,13aS)-1-(5-methoxypyridin-3-yl)-11a,13a-dimethyl-3a,3b,4,5,7,8,9,10,11,11a,11b,12,13,13a-tetradecahydro-3H-azepino[2,1-a]cyclopenta[f]isoquinoline] | 1 to 50% |  | 
C[C@]12CCNC(=O)CC[C@@H]1CC[C@@H]1[C@@H]2CC[C@]2(C)C(c3cccnc3)=CC[C@@H]12 [Compound 101, (6aS,6bS,8aS,11aS,11bR,13a5)-6a,8a-dimethyl-9-(pyridin-3-yl)-4,5,6,6a,6b,7,8,8a,11,11a,11b,12,13,13a-tetradecahydro-1H-cyclopenta[5,6]naphtho[1,2-d]azocin-3(2H)-one] | 50 to 80% |  | 
CCOc1cncc(C2=CC[C@H]3[C@@H]4CC[C@H]5CCOCC[C@]5(C)[C@H]4CC[C@]23C)c1 [Compound 124, 3-((5aS,5bS,7aS,10aS,10bR,12aS)-5a,7a-dimethyl-2,4,5,5a,5b,6,7,7a,10,10a,10b,11,12,12a-tetradecahydro-1H-cyclopenta[5,6]naphtho[1,2-d]oxepin-8-yl)-5-ethoxypyridine] | 50 to 80% |  | 
Cc1cncc(C2=CC[C@H]3[C@@H]4CC=C5C[C@H](NC(=O)C6CC6)CC[C@]5(C)[C@H]4CC[C@]23C)c1 [Compound 227, N-((3R,10R,13S)-10,13-dimethyl-17-(5-methylpyridin-3-yl)-2,3,4,7,8,9,10,11,12,13,14,15-dodecahydro-1H-cyclopenta[a]phenanthren-3-yl)cyclopropanecarboxamide] |  |  | inhibition at 0.001 µM [2, 6]: > 50%; IC50 [3, 7]: < 11 nM
Cc1cncc(C2=CC=C3[C@@H]4CCC5CC(=O)NCC[C@]5(C)[C@H]4CC[C@]23C)c1 (stereo partly drawn) [Compound 460, (5aS,5bS,7aS,10bR)-5a,7a-dimethyl-8-(5-methylpyridin-3-yl)-3,4,5,5a,5b,6,7,7a,10b,11,12,12a-dodecahydrocyclopenta[5,6]naphtho[1,2-d]azepin-2(1H)-one] |  |  | inhibition at 0.001 µM [2, 6]: > 50%; IC50 [3, 7]: < 11 nM
CC1CC2C3CC=C(c4cccnc4)[C@@]3(C)CCC2[C@@]2(C)CC[C@H](O)CC12O (stereo partly drawn) [Compound 410, (3S,10R,13S)-6,10,13-trimethyl-17-(pyridin-3-yl)-2,3,4,5,6,7,8,9,10,11,12,13,14,15-tetradecahydro-1H-cyclopenta[a]phenanthrene-3,5-diol] |  | < 11 nM | inhibition at 0.001 µM [2, 8]: > 50%
C[C@]12CC[C@H]3[C@@H](CC(F)C4(O)CC(=O)CC[C@]34C)[C@@H]1CC=C2c1cncc(F)c1 (stereo partly drawn) [Compound 324, (10R,13S)-6-fluoro-17-(5-fluoropyridin-3-yl)-5-hydroxy-10,13-dimethyl-4,5,6,7,8,9,10,11,12,13,14,15-dodecahydro-1H-cyclopenta[a]phenanthren-3(2H)-one] |  | < 11 nM | inhibition at 0.001 µM [2, 8]: > 50%
C[C@]12CC[C@@H](NC(=O)C3CCC3)CC1=CCC1C2CC[C@]2(C)C(c3cccnc3)=CCC12 (stereo partly drawn) [Compound 226, N-((3R,10R,13S)-10,13-dimethyl-17-(pyridin-3-yl)-2,3,4,7,8,9,10,11,12,13,14,15-dodecahydro-1H-cyclopenta[a]phenanthren-3-yl)cyclobutanecarboxamide] |  |  | inhibition at 0.001 µM [2, 6]: > 50%; IC50 [3, 7]: < 11 nM
CC1=C2CC[C@@H]3[C@H](CC[C@]4(C)C(c5cccnc5)=CC[C@@H]34)[C@@]2(C)CCC1O (mixture of isomers) [Compound 302, (10R,13S)-4,10,13-trimethyl-17-(pyridin-3-yl)-2,3,6,7,8,9,10,11,12,13,14,15-dodecahydro-1H-cyclopenta[a]phenanthren-3-ol] |  | < 11 nM | inhibition at 0.001 µM [2, 8]: 10 to 50%
C[C@]12CCC3C(CCC4CC(F)(F)CC[C@@]43C)C1=CC=C2c1cccnc1 (stereo partly drawn) [Compound 403, 3-((10S,13S)-3,3-difluoro-10,13-dimethyl-2,3,4,5,6,7,8,9,10,11,12,13-dodecahydro-1H-cyclopenta[a]phenanthren-17-yl)pyridine] |  | < 11 nM | 
C[C@]12CCC(F)(F)CC1CCC1C2CC[C@]2(C)C(c3cccnc3)=CCC12 (stereo partly drawn) [Compound 404, 3-((10S,13S)-3,3-difluoro-10,13-dimethyl-2,3,4,5,6,7,8,9,10,11,12,13,14,15-tetradecahydro-1H-cyclopenta[a]phenanthren-17-yl)pyridine] |  | < 11 nM | 
CC1=C2CCC3C4=CC=C(c5cccnc5)[C@@]4(C)CCC3[C@@]2(C)CCC1O (stereo partly drawn) [Compound 299, (10R,13S)-4,10,13-trimethyl-17-(pyridin-3-yl)-2,3,6,7,8,9,10,11,12,13-decahydro-1H-cyclopenta[a]phenanthren-3-ol] |  |  | inhibition at 0.001 µM [2, 6]: < 10%; IC50 [3, 7]: < 11 nM
C[C@]12CCC3C(CCC4CC(F)(F)CC[C@@]43C)C1=CC=C2c1cncc(F)c1 (stereo partly drawn) [Compound 402, 3-((10S,13S)-3,3-difluoro-10,13-dimethyl-2,3,4,5,6,7,8,9,10,11,12,13-dodecahydro-1H-cyclopenta[a]phenanthren-17-yl)-5-fluoropyridine] |  | > 25 nM | 
C[C@]12CC[C@H]3[C@@H](CC(F)C4(O)CC(=O)CC[C@]34C)[C@@H]1CC=C2c1cccnc1 (stereo partly drawn) [Compound 310e, (10R,13S)-6-fluoro-5-hydroxy-10,13-dimethyl-17-(pyridin-3-yl)-4,5,6,7,8,9,10,11,12,13,14,15-dodecahydro-1H-cyclopenta[a]phenanthren-3(2H)-one] |  | < 11 nM | inhibition at 0.001 µM [2, 8]: > 50%
CC(=O)O[C@H]1CC[C@@]2(C)C(=CC[C@H]3C4=CC=C(n5ccnc5)[C@@]4(C)CC[C@@H]32)C1 [Compound 73, (3S,10R,13S)-17-(1H-imidazol-1-yl)-10,13-dimethyl-2,3,4,7,8,9,10,11,12,13-decahydro-1H-cyclopenta[a]phenanthren-3-yl acetate] |  |  | IC50 ([3]; DHEA by ELISA, read-out: Biological Example No. 4: CYP17 enzymatic assay IC50): < 11 nM

The next lines start with results.

inhibition at 0.01 µM [1, 5] | SMILES | IC50 [3, 9] | also measured
1 to 50% | C[C@]12CCC(=O)NC[C@@H]1CC[C@@H]1[C@@H]2CC[C@]2(C)C(n3ccnn3)=CC[C@@H]12 [Compound 138, (5aR,5bS,7aS,10aS,10bR,12aR)-5a,7a-dimethyl-8-(1H-1,2,3-triazol-1-yl)-1,2,5,5a,5b,6,7,7a,10,10a,10b,11,12,12a-tetradecahydrocyclopenta[5,6]naphtho[2,1-c]azepin-3(4H)-one] |  | 
1 to 50% | COc1cncc(C2=CC[C@H]3[C@@H]4CCC5=CCN(C)CC[C@]5(C)[C@H]4CC[C@]23C)c1 [Compound 148] |  | 
1 to 50% | C[C@]12CC(=O)C[C@@H]1CC[C@@H]1[C@@H]2CC[C@]2(C)C(n3ccnn3)=CC[C@@H]12 [Compound 110, (3aS,5aS)-3a,5a-dimethyl-6-(1H-1,2,3-triazol-1-yl)-3,3a,3b,4,5,5a,8,8a,8b,9,10,10a-dodecahydrodicyclopenta[a,f]naphthalen-2(1H)-one] |  | 
< 1% | CC(=O)N1CCC[C@@]2(C)[C@@H](CC[C@@H]3[C@@H]2CC[C@]2(C)C(n4ccnn4)=CC[C@@H]32)C1 [Compound 141, 1-((5aR,5bS,7aS,10aS,10bR,12aR)-5a,7a-dimethyl-8-(1H-1,2,3-triazol-1-yl)-3,4,5,5a,5b,6,7,7a,10,10a,10b,11,12,12a-tetradecahydrocyclopenta[5,6]naphtho[2,1-c]azepin-2(1H)-yl)ethanone] |  | 
